Test results reported in the NIST ThermoML archive (doi:10.1016/j.fluid.2010.03.027).
Numbers after ± are expanded uncertainties.

Columns and labels:
[1] = Liquid, Closed cell (Static) method
[2] = activity coefficient (dimensionless); of the first substance listed, at infinite dilution; xn = mol fraction of the nth substance listed; conditions: 101 kPa, Liquid, dilutor technique, x1 = 0

activity coefficient ([2]; 288.15 K)	activity coefficient ([2]; 298.15 K)	activity coefficient ([2]; 303.15 K)	Structure (SMILES)	also measured
			C1CCSC1 [tetrahydrothiophene]	vapor or sublimation pressure ([1]; 293.97 K): 2.1 ± 1.2 kPa; vapor or sublimation pressure ([1]; 312.87 K): 5.9 ± 1.2 kPa
			CSC [2-thiapropane]	vapor or sublimation pressure ([1]; 293.94 K): 53.2 ± 1.2 kPa; vapor or sublimation pressure ([1]; 312.86 K): 108.8 ± 1.2 kPa
1.77 ± 0.68	1.71 ± 0.52	1.64 ± 0.46	CSC [2-thiapropane] + C=CCCCC	
1.77 ± 0.7	1.72 ± 0.54	1.67 ± 0.3	CSC [2-thiapropane] + CC(C)CC(C)(C)C	
			CCC [propane]	vapor or sublimation pressure ([1]; 293.94 K): 852.6 ± 2.3 kPa; vapor or sublimation pressure ([1]; 293.97 K): 853.1 ± 2.3 kPa; vapor or sublimation pressure ([1]; 312.85 K): 1358.5 ± 2.8 kPa; vapor or sublimation pressure ([1]; 312.87 K): 1361.3 ± 2.8 kPa
1.5 ± 0.66	1.45 ± 0.52	1.4 ± 0.44	CSC [2-thiapropane] + C=C(C)CC(C)(C)C	
2.16 ± 0.9	1.95 ± 0.68	1.91 ± 0.6	CSC [2-thiapropane] + CCCCCC	activity coefficient ([2]; 293.15 K): 2.04 ± 0.78
